Data: ChEMBL document CHEMBL5537127, “Design and synthesis of novel hederagonic acid analogs as potent anti-inflammatory compounds capable of protecting against LPS-induced acute lung injury” (Eur J Med Chem, 2024)
Activity calls are given as the source filed them. The calls are words filed in the database; no cut-off is given here.

Legend:
[1] = Cytotoxicity against mouse RAW264.7 cells assessed as cell viability at 40 uM incubated for 24 hrs by MTT assay relative to control; assay type: toxicity, cell-based; settings: read-out: Activity
[2] = tested on: RAW264.7; assay: Anti-inflammatory activity against LPS-induced mouse RAW264.7 cells assessed as inhibition of NO production at 10 uM preincubated for 2 hrs followed by LPS addition and measured after 24 hrs by Griess reagent-based microplate reader analysis relative to control; assay type: functional; set-up: scale not given: the % may be the effect or the level left; settings: time 26 hrs
[3] = tested on: RAW264.7; assay: Anti-inflammatory activity against LPS-induced mouse RAW264.7 cells assessed as inhibition of NO production at 20 uM preincubated for 2 hrs followed by LPS addition and measured after 24 hrs by Griess reagent-based microplate reader analysis relative to control; assay type: functional; set-up: scale not given: the % may be the effect or the level left; settings: time 26 hrs
[4] = target: T1, Stimulator of interferon genes protein (Mus musculus) (UniProt Q3TBT3); assay: Binding affinity to STING in mouse RAW264.7 cells assessed as reduction in protein degradation at 40 uM at 40 to 61 degreeC incubated for 12 hrs by thermal shift assay; assay type: cell-based
T1 sequence (whole entry): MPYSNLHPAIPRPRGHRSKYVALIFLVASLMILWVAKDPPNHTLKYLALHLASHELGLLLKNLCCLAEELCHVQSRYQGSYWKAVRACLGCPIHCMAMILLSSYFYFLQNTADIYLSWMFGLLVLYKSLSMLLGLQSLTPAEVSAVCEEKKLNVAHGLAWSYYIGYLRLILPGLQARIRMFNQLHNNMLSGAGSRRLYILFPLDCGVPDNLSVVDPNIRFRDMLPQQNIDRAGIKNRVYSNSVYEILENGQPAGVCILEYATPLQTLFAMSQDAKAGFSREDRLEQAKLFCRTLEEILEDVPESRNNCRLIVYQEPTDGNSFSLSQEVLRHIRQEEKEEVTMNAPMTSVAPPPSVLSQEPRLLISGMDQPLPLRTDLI

[5] = target: T1, Stimulator of interferon genes protein (Mus musculus); assay: Binding affinity to STING in mouse RAW264.7 cells assessed as protein stabilization at 49 degreeC incubated for 12 hrs by thermal shift assay; assay type: cell-based; settings: dose 0.4-40 µM
[6] = target: T1, Stimulator of interferon genes protein (Mus musculus); assay: Binding affinity to STING in mouse RAW264.7 cells assessed as inhibition of protein degradation at 4 to 40 uM at 49 degreeC incubated for 12 hrs by thermal shift assay; assay type: cell-based; settings: dose 4-40 µM
[7] = tested on: RAW264.7; assay: Anti-inflammatory activity against LPS-induced mouse RAW264.7 cells assessed as inhibition of p65 nuclear translocation at 5 uM preincubated for 2 hrs followed by LPS addition and measured after 2 hrs by FITC/DAPI staining based laser confocal microscopy analysis; assay type: functional, cell-based; settings: time 4.0 hrs
[8] = tested on: RAW264.7; assay: Anti-inflammatory activity against LPS-induced mouse RAW264.7 cells assessed as inhibition of IRF3 nuclear translocation at 5 uM preincubated for 2 hrs followed by LPS addition and measured after 2 hrs by FITC/DAPI staining based laser confocal microscopy analysis; assay type: functional, cell-based; settings: time 4.0 hrs
[9] = tested on: RAW264.7; assay: Anti-inflammatory activity against LPS-induced mouse RAW264.7 cells assessed as decrease in IL-6 expression at 1.25 to 5 uM preincubated for 2 hrs followed by LPS addition and measured after 12 hrs by ELISA; assay type: functional, cell-based; settings: dose 1.25-5 µM, time 14.0 hrs
[10] = tested on: RAW264.7; assay: Anti-inflammatory activity against LPS-induced mouse RAW264.7 cells assessed as decrease in TNF-alpha expression at 1.25 to 5 uM preincubated for 2 hrs followed by LPS addition and measured after 12 hrs by ELISA; assay type: functional, cell-based; settings: dose 1.25-5 µM, time 14.0 hrs
[11] = tested on: RAW264.7; assay: Anti-inflammatory activity against LPS-induced mouse RAW264.7 cells assessed as decrease in IFN-beta expression at 1.25 to 5 uM preincubated for 2 hrs followed by LPS addition and measured after 12 hrs by ELISA; assay type: functional, cell-based; settings: dose 1.25-5 µM, time 14.0 hrs
[12] = tested on: RAW264.7; assay: Anti-inflammatory activity against LPS-induced mouse RAW264.7 cells assessed as decrease in TBK1 phosphorylation at 1.25 to 5 uM by Western blotting analysis; assay type: functional, cell-based; settings: dose 1.25-5 µM
[13] = tested on: RAW264.7; assay: Anti-inflammatory activity against LPS-induced mouse RAW264.7 cells assessed as decrease in IRF3 phosphorylation at 1.25 to 5 uM by Western blotting analysis; assay type: functional, cell-based; settings: dose 1.25-5 µM
[14] = tested on: RAW264.7; assay: Anti-inflammatory activity against LPS-induced mouse RAW264.7 cells assessed as decrease in p65 phosphorylation at 1.25 to 5 uM by Western blotting analysis; assay type: functional, cell-based; settings: dose 1.25-5 µM
[15] = tested on: RAW264.7; assay: Anti-inflammatory activity against LPS-induced mouse RAW264.7 cells assessed as decrease in IkappaB phosphorylation at 1.25 to 5 uM by Western blotting analysis; assay type: functional, cell-based; settings: dose 1.25-5 µM
[16] = tested on: RAW264.7; assay: Anti-inflammatory activity against LPS-induced mouse RAW264.7 cells assessed as decrease in STING protein level at 1.25 to 5 uM by Western blotting analysis; assay type: functional, cell-based; settings: dose 1.25-5 µM
[17] = tested on: Mus musculus; assay: Anti-inflammatory activity against LPS-stimulated BALB/c mouse acute lung injury model assessed as decrease in pulmonary edema in lung tissue at 1.25 to 5 mg/kg, po administered for 3 days by hematoxylin and eosin staining based analysis; assay type: functional, organism-based; settings: dose 1.25-5 mg/kg, time 3.0 day
[18] = tested on: Mus musculus; assay: Anti-inflammatory activity against LPS-stimulated BALB/c mouse acute lung injury model assessed as decrease in MDA level in lung tissue at 1.25 to 5 mg/kg, po administered for 3 days by colorimetric method; assay type: functional, organism-based; settings: dose 1.25-5 mg/kg, time 3.0 day
[19] = tested on: Mus musculus; assay: Anti-inflammatory activity against LPS-stimulated BALB/c mouse acute lung injury model assessed as increase in SOD level in lung tissue at 1.25 to 5 mg/kg, po administered for 3 days by colorimetric method; assay type: functional, organism-based; settings: dose 1.25-5 mg/kg, time 3.0 day
[20] = tested on: Mus musculus; assay: Anti-inflammatory activity against LPS-stimulated BALB/c mouse acute lung injury model assessed as decrease in STING expression at 1.25 to 5 mg/kg, po administered for 3 days by Western blotting analysis; assay type: functional, organism-based; settings: dose 1.25-5 mg/kg, time 3.0 day
[21] = tested on: Mus musculus; assay: Anti-inflammatory activity against LPS-stimulated BALB/c mouse acute lung injury model assessed as decrease in TBK1 phosphorylation at 1.25 to 5 mg/kg, po administered for 3 days by Western blotting analysis; assay type: functional, organism-based; settings: dose 1.25-5 mg/kg, time 3.0 day
[22] = tested on: Mus musculus; assay: Anti-inflammatory activity against LPS-stimulated BALB/c mouse acute lung injury model assessed as decrease in IRF3 phosphorylation at 1.25 to 5 mg/kg, po administered for 3 days by Western blotting analysis; assay type: functional, organism-based; settings: dose 1.25-5 mg/kg, time 3.0 day
[23] = tested on: Mus musculus; assay: Anti-inflammatory activity against LPS-stimulated BALB/c mouse acute lung injury model assessed as decrease in p65 phosphorylation at 1.25 to 5 mg/kg, po administered for 3 days by Western blotting analysis; assay type: functional, organism-based; settings: dose 1.25-5 mg/kg, time 3.0 day
[24] = tested on: Mus musculus; assay: Anti-inflammatory activity against LPS-stimulated BALB/c mouse acute lung injury model assessed as decrease in IkappaB phosphorylation at 1.25 to 5 mg/kg, po administered for 3 days by Western blotting analysis; assay type: functional, organism-based; settings: dose 1.25-5 mg/kg, time 3.0 day
[25] = tested on: Mus musculus; assay: Anti-inflammatory activity against LPS-stimulated BALB/c mouse assessed as decrease in IL-6 level in BALF administered for 3 days by Western blotting analysis; assay type: functional, organism-based; settings: dose 1.25-5 mg/kg, route po, time 3.0 day
[26] = tested on: Mus musculus; assay: Anti-inflammatory activity against LPS-stimulated BALB/c mouse assessed as decrease in TNF-alpha level in BALF administered for 3 days by Western blotting analysis; assay type: functional, organism-based; settings: dose 1.25-5 mg/kg, route po, time 3.0 day
[27] = tested on: Mus musculus; assay: Anti-inflammatory activity against LPS-stimulated BALB/c mouse assessed as decrease in IFN-beta level in BALF administered for 3 days by Western blotting analysis; assay type: functional, organism-based; settings: dose 1.25-5 mg/kg, route po, time 3.0 day

CC1(C)CC[C@]2(C(=O)OCc3ccccc3)CC[C@]3(C)C(=CC[C@@H]4[C@@]5(C)CCC(=O)[C@@](C)(COC(=O)CCCNC(=O)CCCC[C@@H]6CCSS6)[C@@H]5CC[C@]43C)[C@@H]2C1
viability at 24 h, 40 µM [1]: 100%
Activity [2]: 69.78%
Activity [3]: 81.7%
Activity [4]: Active
Activity [5]: Dose-Dependent Effect
Activity [6]: Active
Activity [7]: Active
Activity [8]: Active
Activity [9]: Active
Activity [10]: Active
Activity [11]: Active
Activity [12]: Active
Activity [13]: Active
Activity [14]: Active
Activity [15]: Active
Activity [16]: Active
Activity [17]: Active
Activity [18]: Active
Activity [19]: Active
Activity [20]: Active
Activity [21]: Active
Activity [22]: Active
Activity [23]: Active
Activity [24]: Active
Activity [25]: Dose-Dependent Effect
Activity [26]: Dose-Dependent Effect
Activity [27]: Dose-Dependent Effect
